Reference: patent publication US11897859B1, “Coumarin compounds as antibacterial agents” (KING FAISAL UNIVERSITY, priority 2023, dated 2024)
In brackets after ≈: the same amount, converted by molar mass. Like-named read-outs stand apart in the source and are kept apart here.

Key:
[1] = test system: Staphylococcus aureus ATCC 29213; assay: In vitro antibacterial activity (CLSI M07-A10 dilution), MIC; format: cell-based; conditions: ATCC29213
[2] = test system: Staphylococcus aureus ATCC BAA-1556 (MERSA resistant); assay: as above; format: cell-based; conditions: ATCCBAA1556
[3] = test system: Staphylococcus epidermidis; assay: as above; format: cell-based
[4] = test system: Bacillus subtilis MTCC 441; assay: as above; format: cell-based; conditions: MTCC441
[5] = test system: Enterococcus faecium ATCC 35667; assay: as above; format: cell-based; conditions: ATCC35667
[6] = test system: Enterococcus faecium ATCC 51559 (VRE resistant); assay: as above; format: cell-based
[7] = test system: Klebsiella pneumonia MTCC 618; assay: as above; format: cell-based; conditions: Klebsiella pneumoniae, MTCC618
[8] = test system: Escherichia coli MTCC 443; assay: as above; format: cell-based; conditions: MTCC443
[9] = test system: Pseudomonas aeruginosa MTCC 741; assay: as above; format: cell-based; conditions: MTCC741
[10] = test system: Mycobacterium tuberculosis H37Rv strain; assay: Anti-tubercular alamar blue microplate MIC assay; format: cell-based; conditions: 168 h, M. tuberculosis H37Rv, 7 days at 37° C., read-out: anti-mycobacterial activity (MIC)
[11] = biological target: T1, DNA gyrase from E. coli (Escherichia coli, UniProt P0AES4+P0AES6); assay: Inhibitory activity on E. coli DNA gyrase (Inspiralis supercoiling assay); format: biochemical
T1 construct: purchased Inspiralis
T1 sequence (P0AES4 whole entry, one chain of several): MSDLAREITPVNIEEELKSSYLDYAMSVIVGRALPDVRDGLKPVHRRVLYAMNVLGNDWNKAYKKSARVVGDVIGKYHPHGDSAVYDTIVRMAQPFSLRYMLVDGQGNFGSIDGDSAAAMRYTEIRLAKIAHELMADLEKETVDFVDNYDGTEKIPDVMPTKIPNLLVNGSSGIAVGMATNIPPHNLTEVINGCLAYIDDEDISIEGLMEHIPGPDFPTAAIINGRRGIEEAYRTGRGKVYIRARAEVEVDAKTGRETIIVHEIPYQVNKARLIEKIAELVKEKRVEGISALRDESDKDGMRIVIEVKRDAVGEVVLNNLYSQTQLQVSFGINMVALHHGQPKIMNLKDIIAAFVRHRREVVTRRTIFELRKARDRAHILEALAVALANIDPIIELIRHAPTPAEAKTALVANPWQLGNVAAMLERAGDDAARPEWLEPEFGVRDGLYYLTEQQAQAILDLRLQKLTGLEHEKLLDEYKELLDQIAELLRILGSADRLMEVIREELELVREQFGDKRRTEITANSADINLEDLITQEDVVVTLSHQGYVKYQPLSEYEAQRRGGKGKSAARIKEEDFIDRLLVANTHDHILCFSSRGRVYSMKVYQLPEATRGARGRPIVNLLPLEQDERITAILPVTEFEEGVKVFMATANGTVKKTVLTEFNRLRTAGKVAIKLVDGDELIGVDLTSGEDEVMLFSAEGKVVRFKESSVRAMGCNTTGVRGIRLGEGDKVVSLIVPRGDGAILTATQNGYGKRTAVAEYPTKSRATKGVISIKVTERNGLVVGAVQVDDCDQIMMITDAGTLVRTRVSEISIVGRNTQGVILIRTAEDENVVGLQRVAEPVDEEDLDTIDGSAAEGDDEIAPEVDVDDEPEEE
Protocol: Inhibitory potencies were investigated utilizing the Inspiralis assay on streptavidin-coated 96-well microtiter plates. First, the plates were rehydrated with buffer (20 mM Tris-HCl with pH 7.6, 0.01% w/v BSA, 0.05% v/v Tween 20, 137 mM NaCl) and the biotinylated oligonucleotide was then immobilized. After washing off the unbound oligonucleotide, the enzyme test was performed. […] Reaction solutions were incubated at 37° C. for 30 min. After that, the TF buffer (50 mM NaOAc with pH 5.0, 50 mM NaCl and 50 mM MgCl2) was added to terminate the enzymatic reaction. After additional incubation for 30 min at rt, during which biotinoligonucleotide-plasmid triplex was formed, the unbound plasmid was washed off using TF buffer and SybrGOLD in T10 buffer (10 mM Tris HCl with pH 8.0 and 1 mM EDTA) was added. The fluorescence was measured with a microplate reader (BioTek Synergy H4, excitation: 485 nm, emission: 535 nm). […] GraphPad Prism software was used to calculate the IC50 values. The result is given as the average value of three independent measurements.

CCC(=O)Nc1ccc2cc(-c3cc(C(=O)O)ccc3CN(C)C3CCCCC3)c(=O)oc2c1 [Compound 12, 4-((cyclohexyl(methyl)amino)methyl)-3-(2-oxo-7-propionamido-2H-chromen-3-yl)benzoic acid]
MIC [1]: 2 µg/mL (≈ 4.32 µM) | MIC [2]: 4 µg/mL (≈ 8.65 µM) | MIC [3]: 1 µg/mL (≈ 2.16 µM) | MIC [4]: 0.75 µg/mL (≈ 1.62 µM) | MIC [5]: 0.75 µg/mL (≈ 1.62 µM) | MIC [6]: 1 µg/mL (≈ 2.16 µM) | MIC ([7]; Klebsiella pneumonia MTCC 618, read-out: MIC): 1 µg/mL (≈ 2.16 µM) | MIC [8]: 4 µg/mL (≈ 8.65 µM) | MIC [9]: 1 µg/mL (≈ 2.16 µM) | MIC [10]: 8 µg/mL (≈ 17.3 µM) | IC50 [11]: 78 nM

CN[C@H](CC(C)C)C(=O)N[C@H]1C(=O)N[C@@H](CC(N)=O)C(=O)N[C@H]2C(=O)N[C@H]3C(=O)N[C@H](C(=O)N[C@H](C(=O)O)c4cc(O)cc(O)c4-c4cc3ccc4O)[C@H](O)c3ccc(c(Cl)c3)Oc3cc2cc(c3O[C@@H]2O[C@H](CO)[C@@H](O)[C@H](O)[C@H]2O[C@H]2C[C@](C)(N)[C@H](O)[C@H](C)O2)Oc2ccc(cc2Cl)[C@H]1O [Vancomycin, reference compound]
MIC [7]: > 128 µg/mL
